From US12156888B2, “CAR T-cells for the treatment of bone metastatic cancer” (H. Lee Moffitt Cancer Center and Research Institute, Inc., priority 2018, dated 2024)

Experiments:
[1] = system: C4-2B-PSCA-Luc human CRPC prostate cancer cells; experiment: IPP production in response to zoledronate, LC-MS/MS of cell extracts; type: cell-based; conditions: C4-2B-PSCA-Luc cells, 10 μM or 25 μM, 1 h or 18 h
Protocol: (§1) Following treatment of tumor cells with ZOL, IPP was measured in cell extracts by tandem LC-MS/MS, using AppCp as an internal standard. […] ZOL treatment was administered for 1 h or 18 h, at 2 different doses: 10 μM or 25 μM.
(§2) In order to verify that zoledronate effectively induces IPP accumulation in a model system, C4-2B-PSCA-Luc human CRPC prostate cancer cells were treated with 10 μM or 25 μM of zoledronate, for 1 h or 18 h. Intracellular IPP levels were measured using a semi-quantitative mass spectrometry assay. T47D breast cancer cells were used as positive control, and Panc02.03 pancreatic cancer cells were used as negative controls.

[2] = system: Panc02.03 pancreatic cancer cells; experiment: as above; type: cell-based; conditions: Panc02.03 cells, prolonged treatment with high doses
Protocol: as §1, §2

T47D breast cancer cells = experiment: as above; type: cell-based
Protocol: as §1, §2

C4-2B-PSCA cells = experiment: RTCA cytotoxicity assay of γδ T-cells; type: cell-based, human
Protocol: Summary of RTCA analysis of C4-2B-PSCA, or control PSCA null C4-2B, cells co-cultured with γδ CAR-T cells, or untransduced controls (UT). FIGS. […] show tumor cells without ZOL pretreatment. FIGS. 6C and 6D show tumor cells with 2 h ZOL pretreatment. FIGS. 6A and 6C show tumor cell viability 2 h post co-culture. FIGS. 6B and 6D show 30 h post co-culture.
The CAR- and TCR-mediated mechanism of tumor cell recognition were tested using the CRPC C4-2B cell line.

[3] = system: C4-2B luciferase expressing cells; experiment: Intratibial C4-2B bone metastatic CRPC model with human γδ T-cells, zoledronate or vehicle; type: in vivo, NSG mice; conditions: for Percentage of CD3Vd2 positive cells in flushed tibias, higher than control: zoledronate 0.1 mg/Kg
Source text: FIGS. 7A to 7D show C4-2B cells inoculated into NSG mice and treated with either zoledronate (ZOL) or vehicle control. After establishment and randomization mice ([…]) were inoculated with 3.5×10^6 […]. Subsets of mice were removed from the study at 1, 3 and 5 days late. […] Number illustrate the percentage of γδ T-cells in the total marrow analysis over time. […] FIG. 7C is a graph showing RLUs quantitated over time and the growth rates calculated for each group. Asterisk indicates statistical significance. Mice at the final time point were assessed for γδ T-cell localization (CD3), apoptosis (cleaved caspase-3; CC3) and proliferation (phospho histone H3; pHH3). […] Arrows indicate positivity. DAPI was used as a nuclear counterstain.
Next, the anti-tumor activity of γδ T-cells on established bone metastatic CRPC lesions in vivo was assessed. NSG (NOD.Cg-Prkdcscid112rgtm1Wjl/SzJ) immunocompromised mice were intratibially inoculated with C4-2B luciferase expressing cells (1×10^5) and once established were randomized in zoledronate (0.1 mg/Kg) or vehicle (saline) groups (n=25 per group) based on relative luminescence unit (RLU) measurement. One week later, mice received tail vein injections of human γδ T-cells (3.5×10^6/mouse).
Groups of mice (n=5) were removed from the study 1, 3, 5 days subsequent to injection with tibias being flushed and assessed for human CD3 Vd2 content by flow cytometry. […] Bioluminescence was used as a correlate of tumor growth.

[4] = system: PSCA-expressing C42B prostate cancer cells; experiment: IFNγ ELISA of co-culture supernatants; type: cell-based, human
Protocol: IFNγ ELISA of co-culture supernatants of C4-2B-PSCA cells exposed to media (negative control) or the indicated T cells, in presence of increasing concentrations of Zol (0, 0.4 and 0.8 μM).
Four variants of the anti-PSCA CAR were generated containing either CD27 (CD27z), CD28 (CD28z), or 4-1BB (BBz) costimulation. The fourth variant contains a CD27 costimulatory domain where the TRAF-binding site has been replaced with an inert flexible linker (G4S). γδ CAR-T cells expressing either CAR variant (or GFP as controls) were generated, and cocultured with PSCA-expressing C42B prostate cancer cells, in presence or absence of zoledronate, at the indicated doses. The presence of interferon-γ in the supernatants (measured by ELISA) was used as a marker of T cell activation. CAR-expressing T cells (but not untransduced or GFP-transduced cells) reacted to target cells by producing interferon-γ (solid bars).
γδ CAR-T cells recognize tumor cells via CAR and via TCR. The CAR- and TCR-mediated mechanisms of tumor cell recognition were tested using the CRPC C4-2BPSCA cell line. Cancer cells were treated with either untransduced (UT) control or CAR-expressing γδ T-cells, in the presence or absence of ZOL (0.4 μM). In presence of ZOL, control γδ T cells induced a cytotoxic effect at approx. 18 h, reflecting recognition of C4-2B-PSCA cells via TCR. […] The ability to induce a potent cytolytic effect with lesser cytokine production that can be modulated by ZOL is important since it may allow γδ (CAR−)T-cells to mediate more precise tumor killing, reducing the risk for complications related to massive cytokine release.

γδ (CAR)-T cells = experiment: IL-2 secretion by γδ (CAR)-T cells; type: cell-based
[5] = study endpoint, compared to control
[6] = coculture with PSCA-expressing C42B cells

In the case of `O=P(O)(O)C(O)(Cn1ccnc1)P(=O)(O)O` [zoledronate], the “Intracellular IPP levels” value [1] is reported as “produced high levels of IPP”, the “Intracellular IPP levels” value [2] is reported as “did not produce IPP” and the “Intracellular IPP levels” value (T47D breast cancer cells; 1 h, high-dose zoledronate (doses 10 μM or 25 μM)) is reported as “detectable over background”. The “Intracellular IPP levels” value (T47D breast cancer cells; 18 h, both doses (10 μM or 25 μM)) was “detectable over background”, the “Time at which control (untransduced) γδ T cells induced a cytotoxic effect” value (C4-2B-PSCA cells) was “approx. 18 h” and the “Effect of ZOL on cytolytic activity of γδ CAR-T” value (C4-2B-PSCA cells; ZOL 0.4 μM) was “greatly enhanced”. For the same molecule, the “Percentage of CD3Vd2 positive cells in flushed tibias, higher than control” value (from here on “Percentage of CD3Vd2 positive cells”) ([3]; Day 1 after γδ T-cell injection) was > 61%, the “Percentage of CD3Vd2 positive cells” value ([3]; Day 3 after γδ T-cell injection) was > 32% and the “Percentage of CD3Vd2 positive cells” value ([3]; Day 5 after γδ T-cell injection) was > 57%. The “Apoptotic (cleaved caspase-3) cancer cells, tibia histology” value [3, 5] was “increased apoptotic”, the “Proliferative (phospo-Histone H3) cancer cells, tibia histology” value [3, 5] was “decreased proliferative” and the “C4-2B growth rate (bioluminescence)” value ([3]; zoledronate group compared to controls, all with γδ T-cells) was “significantly slower”. For the same molecule, the “Effect of ZOL on IFNγ secretion” value ([4]; coculture of γδ (CAR−)T-cells with C4-2BPSCA cells, Zol 0, 0.4 and 0.8 μM) was “enhanced IFNγ secretion”, the “Effect of zoledronate on interferon production by γδ CAR-T cells” value [4, 6] was “enhanced interferon production” and the “Effect of zoledronate on target recognition by GFP-transduced and untransduced γδ T cells” value [4, 6] was “induced target recognition”. The “Effect of ZOL on IFNγ secretion” value ([4]; αβ T cells with C4-2BPSCA cells) was “not observed” and the “Effect of zoledronate on IL-2 secretion by γδ (CAR)-T cells” value (γδ (CAR)-T cells) was “increases IL-2 secretion”.
